Measured values: patent publication US20130261077A1 (priority 2012, published 2013)

Biological target: T1, FimH-CRD (Escherichia coli, UniProt P08191)
T1 construct: The first 177 amino acids of the FimH protein; thrombin tag (printed as 'fusion protein with thrombin') (cleaved yes); made in house; host or cells: bacteria (pET21b plasmid)
Assay: Competitive binding assay by fluorescence polarization, assay 2 (compounds prepared by robotics, plates frozen and thawed)
Procedure: The first 177 amino acids of the FimH protein were expressed as a fusion protein with thrombin in a pET21b plasmid in bacteria. This FimH protein sequence contains the carbohydrate recognition domain (CRD) and shall be termed FimH-CRD. Following bacterial expression of the protein, the FimH-CRD protein was purified to homogeneity and the thrombin tag removed by protease cleavage. A competitive binding assay by fluorescence polarization was performed using 5 nM of the Alexa 647 mannoside probe and 60 nM of the FimH-CRD. The samples are assayed in a low volume 384 well microtiter plate in a final volume of 20 μl. The final assay buffer conditions are the following, 50 mM Tris-Cl, ph 7.0, 100 mM NaCl, 1 mM EDTA, 5 mM β-mercaptoethanol, 0.05% BSA and 2.5% DMSO. Two assays are performed for FimH, termed assay 1 or assay 2. The assay conditions are the same for both assays except the following: assay 1 has compounds prepared by manual dilution in a serial dilution factor with 12-point dose response while assay 2 has compounds prepared by a robotics system also through a serial dilution factor (12 point dose response) and initially prepared in duplicate in 384 well-Corning polypropylene round bottom plates. The assay 2 plates have compound which is then frozen and must be thawed prior to use. Initially the Alexa 647 probe and the FimH-CRD are added to the assay buffer and then 0.5 μl of test compound (assay 1 or 2) between 0.4 nM to 75 μM final concentration are added (12 point titration with 3-fold serial dilution). Control wells for the Alexa 647 probe are prepared with the same conditions except for the addition of the FimH-CRD protein. Plates are then incubated for 5 hrs at room temperature in the dark and under humid conditions to prevent drying. Plates are read using the SpectraMax Paradigm multi-mode plate reader and the appropriate fluorescent polarization detection cartridge (Alexa-647).
Alexa 647 mannoside probe is prepared using the similar procedure reported for FAM mannoside (Han, Z. et. al., 2010, J. Med. Chem., 53, 4779) and is described in the scheme below.
To a blue colored stirred solution of (2S,3S,4S,5S,6R)-2-(4-aminobutoxy)-6-(hydroxymethyl)tetrahydropyran-3,4,5-triol (2.21 mg, 0.009 mmol) and the (2E)-2-[(2E,4E)-5-[3,3-dimethyl-5-sulfonato-1-(3-sulfonatopropyl)indol-1-ium-2-yl]penta-2,4-dienylidene]-3-[6-(2,5-dioxopyrrolidin-1-yl)oxy-6-oxo-hexyl]-3-methyl-1-(3-sulfonatopropyl)indoline-5-sulfonate (Potassium Ion (3)) (4.9 mg, 0.0044 mmol) in DMF (44 μL) is added Et3N (5.4 mg, 7.0 μL, 0.053 mmol) at RT. The solution is stirred at room temperature over night, concentrated, dissolved in water and purified on 12 g C-18 silica gel cartridge on Isolera system using acetonitrile in water (0 to 40%, 10 CV) and followed by lyophilization to afford Alexa 647 mannoside probe (3.3 mg, 34%) as deep blue solid.
The Kd values of the compounds are determined from dose response curves using twelve concentrations per compound in duplicate. Curves are fitted to data points using Fluorescence Polarization competitive displacement analysis, and Kds are interpolated from the resulting curves using GraphPad Prism software, version […] (GraphPad software Inc., San Diego, Calif., USA).

T1 sequence (P08191 22-177): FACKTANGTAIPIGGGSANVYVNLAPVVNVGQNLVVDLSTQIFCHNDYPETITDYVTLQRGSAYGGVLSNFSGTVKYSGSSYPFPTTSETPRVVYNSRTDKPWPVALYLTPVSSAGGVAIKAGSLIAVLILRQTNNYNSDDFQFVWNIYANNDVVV

Compound | Kd
Cc1nnc(-c2ccc(-c3cccc([C@H]4O[C@H](CO)[C@@H](O)[C@H](O)[C@@H]4O)c3C)cc2)o1 [Compound 104, (2R,3S,4R,5S,6R)-2-(Hydroxymethyl)-6-[2-methyl-3-[4-(5-methyl-1,3,4-oxadiazol-2-yl)phenyl]phenyl]tetrahydropyran-3,4,5-triol] | 8.5 ± 3.1 nM
CCc1c(-c2ccc(-c3nnc(C)o3)cc2)cccc1[C@H]1O[C@H](CO)[C@@H](O)[C@H](O)[C@@H]1O [Compound 105, (2R,3S,4R,5S,6R)-2-[2-Ethyl-3-[4-(5-methyl-1,3,4-oxadiazol-2-yl)phenyl]phenyl]-6-(hydroxymethyl)tetrahydropyran-3,4,5-triol] | 28.1 ± 3.9 nM
Cc1nnc(-c2ccc(-c3cccc([C@H]4O[C@H](CO)[C@@H](O)[C@H](O)[C@@H]4O)c3F)cc2)o1 [Compound 106, (2R,3S,4R,5S,6R)-2-[2-Fluoro-3-[4-(5-methyl-1,3,4-oxadiazol-2-yl)phenyl]phenyl]-6-(hydroxymethyl)tetrahydropyran-3,4,5-triol] | 23.4 ± 7.5 nM
COc1cc(-c2nnc(C)o2)ccc1-c1cccc([C@H]2O[C@H](CO)[C@@H](O)[C@H](O)[C@@H]2O)c1C [Compound 107, (2R,3S,4R,5S,6R)-2-(hydroxymethyl)-6-[3-[2-methoxy-4-(5-methyl-1,3,4-oxadiazol-2-yl)phenyl]-2-methyl-phenyl]tetrahydropyran-3,4,5-triol] | 9.8 ± 0.6 nM
Cc1c(-c2ccc(-c3ccn(C)n3)cc2)cccc1[C@H]1O[C@H](CO)[C@@H](O)[C@H](O)[C@@H]1O [Compound 108, (2R,3S,4R,5S,6R)-2-(Hydroxymethyl)-6-[2-methyl-3-[4-(1-methylpyrazol-3-yl)phenyl]phenyl]tetrahydropyran-3,4,5-triol] | 7.9 ± 2.9 nM
Cc1c(-c2ccc(S(C)(=O)=O)cc2)cccc1[C@H]1O[C@H](CO)[C@@H](O)[C@H](O)[C@@H]1O [Compound 109, (2R,3S,4R,5S,6R)-2-(Hydroxymethyl)-6-[2-methyl-3-(4-methylsulfonylphenyl)phenyl]tetrahydropyran-3,4,5-triol] | 14.4 ± 6.2 nM
Cc1c(-c2cccc(S(C)(=O)=O)c2)cccc1[C@H]1O[C@H](CO)[C@@H](O)[C@H](O)[C@@H]1O [Compound 110, (2R,3S,4R,5S,6R)-2-(Hydroxymethyl)-6-[2-methyl-3-(3-methylsulfonylphenyl)phenyl]tetrahydropyran-3,4,5-triol] | 28.9 ± 4.5 nM
CN(C)Cc1nnc(-c2ccc(-c3cccc([C@H]4O[C@H](CO)[C@@H](O)[C@H](O)[C@@H]4O)c3)cc2)o1 [Compound 113, (2R,3S,4R,5S,6R)-2-[3-[4-[5-[(Dimethylamino)methyl]-1,3,4-oxadiazol-2-yl]phenyl]phenyl]-6-(hydroxymethyl)tetrahydropyran-3,4,5-triol] | 20.7 ± 4.7 nM
CC(C)(C)OC(=O)NCc1nnc(-c2ccc(-c3cccc([C@H]4O[C@H](CO)[C@@H](O)[C@H](O)[C@@H]4O)c3)cc2)o1 [Compound 115, tert-Butyl N-[[5-[4-[3-[(2R,3S,4R,5S,6R)-3,4,5-trihydroxy-6-(hydroxymethyl)tetrahydropyran-2-yl]phenyl]phenyl]-1,3,4-oxadiazol-2-yl]methyl]carbamate] | 24.2 ± 2.9 nM
Cc1cnc(-c2ccc(-c3cccc([C@H]4O[C@H](CO)[C@@H](O)[C@H](O)[C@@H]4O)c3)cc2)o1 [Compound 117, (2R,3S,4R,5S,6R)-2-(hydroxymethyl)-6-[3-[4-(5-methyloxazol-2-yl)phenyl]phenyl]tetrahydropyran-3,4,5-triol] | 20.9 ± 6.7 nM
CC(C)c1nnc(-c2ccc(-c3cccc([C@H]4O[C@H](CO)[C@@H](O)[C@H](O)[C@@H]4O)c3)cc2)o1 [Compound 118, (2R,3S,4R,5S,6R)-2-(hydroxymethyl)-6-[3-[4-(5-isopropyl-1,3,4-oxadiazol-2-yl)phenyl]phenyl]tetrahydropyran-3,4,5-triol] | 13.1 ± 0.2 nM
OC[C@H]1O[C@H](c2cccc(-c3ccc(-c4cnco4)cc3)c2)[C@@H](O)[C@@H](O)[C@@H]1O [Compound 119, (2R,3S,4R,5S,6R)-2-(hydroxymethyl)-6-[3-(4-oxazol-5-ylphenyl)phenyl]tetrahydropyran-3,4,5-triol] | 19.5 ± 8.8 nM
OC[C@H]1O[C@H](c2cccc(-c3ccc(-c4nnc(-c5ccccn5)o4)cc3)c2)[C@@H](O)[C@@H](O)[C@@H]1O [Compound 120, (2R,3S,4R,5S,6R)-2-(hydroxymethyl)-6-[3-[4-[5-(2-pyridyl)-1,3,4-oxadiazol-2-yl]phenyl]phenyl]tetrahydropyran-3,4,5-triol] | 12.8 ± 2.1 nM
Cc1ccc(-c2nnc(-c3ccc(-c4cccc([C@H]5O[C@H](CO)[C@@H](O)[C@H](O)[C@@H]5O)c4)cc3)o2)o1 [Compound 121, (2R,3S,4R,5S,6R)-2-(hydroxymethyl)-6-[3-[4-[5-(5-methyl-2-furyl)-1,3,4-oxadiazol-2-yl]phenyl]phenyl]tetrahydropyran-3,4,5-triol] | 13.1 ± 0.9 nM
Cn1ccc(-c2ccc(-c3cccc([C@H]4O[C@H](CO)[C@@H](O)[C@H](O)[C@@H]4O)c3)cc2)n1 [Compound 122, (2R,3S,4R,5S,6R)-2-(hydroxymethyl)-6-[3-[4-(1-methylpyrazol-3-yl)phenyl]phenyl]tetrahydropyran-3,4,5-triol] | 27.6 ± 7.4 nM
Cc1nnc(-c2cccc(-c3cccc([C@H]4O[C@H](CO)[C@@H](O)[C@H](O)[C@@H]4O)c3)c2)o1 [Compound 123, (2R,3S,4R,5S,6R)-2-(hydroxymethyl)-6-[3-[3-(5-methyl-1,3,4-oxadiazol-2-yl)phenyl]phenyl]tetrahydropyran-3,4,5-triol] | 37.1 ± 8.5 nM
Cn1nccc1-c1ccc(-c2cccc([C@H]3O[C@H](CO)[C@@H](O)[C@H](O)[C@@H]3O)c2)cc1 [Compound 124, (2R,3S,4R,5S,6R)-2-(hydroxymethyl)-6-[3-[4-(2-methylpyrazol-3-yl)phenyl]phenyl]tetrahydropyran-3,4,5-triol] | 16.2 ± 2 nM
Cc1nnc(-c2ccc(-c3cccc([C@H]4O[C@H](CO)[C@@H](O)[C@H](O)[C@@H]4O)c3)c(C)c2)o1 [Compound 125, (2R,3S,4R,5S,6R)-2-(hydroxymethyl)-6-[3-[2-methyl-4-(5-methyl-1,3,4-oxadiazol-2-yl)phenyl]phenyl]tetrahydropyran-3,4,5-triol] | 13.9 ± 2.6 nM
COc1cc(-c2cccc([C@H]3O[C@H](CO)[C@@H](O)[C@H](O)[C@@H]3O)c2)ccc1-c1nnc(C)o1 [Compound 127, (2R,3S,4R,5S,6R)-2-(hydroxymethyl)-6-[3-[3-methoxy-4-(5-methyl-1,3,4-oxadiazol-2-yl)phenyl]phenyl]tetrahydropyran-3,4,5-triol] | 17.4 ± 4.8 nM
COc1cc(-c2nnc(C)o2)ccc1-c1cccc([C@H]2O[C@H](CO)[C@@H](O)[C@H](O)[C@@H]2O)c1 [Compound 128, (2R,3S,4R,5S,6R)-2-(hydroxymethyl)-6-[3-[2-methoxy-4-(5-methyl-1,3,4-oxadiazol-2-yl)phenyl]phenyl]tetrahydropyran-3,4,5-triol] | 74.7 ± 60.4 nM
Cc1nnc(-c2ccc(-c3ccc([C@H]4O[C@H](CO)[C@@H](O)[C@H](O)[C@@H]4O)cc3)cc2)o1 [Compound 129, (2R,3S,4R,5S,6R)-2-(hydroxymethyl)-6-[4-[4-(5-methyl-1,3,4-oxadiazol-2-yl)phenyl]phenyl]tetrahydropyran-3,4,5-triol] | 22.9 ± 5.4 nM
CNC(=O)c1cc(/C=C\c2cccc([C@H]3O[C@H](CO)[C@@H](O)[C@H](O)[C@@H]3O)c2)cc(C(=O)NC)c1 [Compound 135] | 22.3 ± 9.8 nM
CNC(=O)c1cc(/C=C/c2cccc([C@H]3O[C@H](CO)[C@@H](O)[C@H](O)[C@@H]3O)c2)cc(C(=O)NC)c1 [Compound 136] | 19.2 ± 3.6 nM
OC[C@H]1O[C@H](c2cccc(/C=C\c3cc(Cl)cc(Cl)c3)c2)[C@@H](O)[C@@H](O)[C@@H]1O [Compound 137, (2R,3S,4R,5S,6R)-2-[3-[(Z)-2-(3,5-dichlorophenyl)vinyl]phenyl]-6-(hydroxymethyl)tetrahydropyran-3,4,5-triol] | 29.9 ± 15.2 nM
